Tests used:
Assay in all cases: relative viability (nuclei count vs DMSO), 5 days (fraction); higher = more cells survive
Tosedostat + Tozasertib = compound: CC(C)C[C@@H](C(=O)N[C@H](C(=O)OC1CCCC1)c1ccccc1)[C@H](O)C(=O)NO [Tosedostat] + Cc1cc(Nc2cc(N3CCN(C)CC3)nc(Sc3ccc(NC(=O)C4CC4)cc3)n2)n[nH]1 [Tozasertib] (partner 0.1 µM)
Summary of the method: (§1)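 Each reported value is a median over duplicate plates. It expresses relative viability: treated-well nuclei count divided by vehicle-well nuclei count. Lung cancer cell lines in 1536-well plates were dosed by pin tool a day after seeding, alone with one drug or with a fixed anchor-drug dose plus five library-drug doses (not always all listed) in √10 steps, and nuclei were counted after 5 days.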

Tosedostat + Bortezomib = compound: CC(C)C[C@@H](C(=O)N[C@H](C(=O)OC1CCCC1)c1ccccc1)[C@H](O)C(=O)NO [Tosedostat] + CC(C)C[C@H](NC(=O)[C@H](Cc1ccccc1)NC(=O)c1cnccn1)B(O)O [Bortezomib] (partner 0.002 µM)
Summary of the method: as §1

Tosedostat + Lapatinib = compound: CC(C)C[C@@H](C(=O)N[C@H](C(=O)OC1CCCC1)c1ccccc1)[C@H](O)C(=O)NO [Tosedostat] + CS(=O)(=O)CCNCc1ccc(-c2ccc3ncnc(Nc4ccc(OCc5cccc(F)c5)c(Cl)c4)c3c2)o1 [Lapatinib] (partner 2 µM)
Summary of the method: as §1

Tosedostat + Olaparib = compound: CC(C)C[C@@H](C(=O)N[C@H](C(=O)OC1CCCC1)c1ccccc1)[C@H](O)C(=O)NO [Tosedostat] + O=C(c1cc(Cc2n[nH]c(=O)c3ccccc23)ccc1F)N1CCN(C(=O)C2CC2)CC1 [Olaparib] (partner 8 µM)
Summary of the method: as §1

Cell Line | relative viability (Tosedostat + Tozasertib; first compound 0.02 µM) | relative viability (Tosedostat + Tozasertib; first compound 0.06325 µM) | relative viability (Tosedostat + Tozasertib; first compound 0.2 µM) | relative viability (Tosedostat + Tozasertib; first compound 0.6325 µM) | relative viability (Tosedostat + Tozasertib; first compound 2 µM) | relative viability (Tosedostat + Bortezomib; first compound 0.02 µM) | relative viability (Tosedostat + Bortezomib; first compound 0.06325 µM) | relative viability (Tosedostat + Bortezomib; first compound 0.2 µM) | relative viability (Tosedostat + Bortezomib; first compound 0.6325 µM) | relative viability (Tosedostat + Bortezomib; first compound 2 µM) | relative viability (Tosedostat + Lapatinib; first compound 0.02 µM) | relative viability (Tosedostat + Lapatinib; first compound 0.06325 µM) | relative viability (Tosedostat + Lapatinib; first compound 0.2 µM) | relative viability (Tosedostat + Lapatinib; first compound 0.6325 µM) | relative viability (Tosedostat + Lapatinib; first compound 2 µM) | relative viability (Tosedostat + Olaparib; first compound 0.02 µM) | relative viability (Tosedostat + Olaparib; first compound 0.06325 µM) | relative viability (Tosedostat + Olaparib; first compound 0.2 µM) | relative viability (Tosedostat + Olaparib; first compound 0.6325 µM) | relative viability (Tosedostat + Olaparib; first compound 2 µM)
H3255 | 0.575 | 0.717 | 0.643 | 0.534 | 0.656 | 0.883 | 0.927 | 0.86 | 0.621 | 0.648 | 0.262 | 0.227 | 0.224 | 0.255 | 0.253 | 0.596 | 0.532 | 0.545 | 0.525 | 0.497
PC-14 | 0.586 | 0.562 | 0.52 | 0.51 | 0.399 | 0.79 | 0.814 | 0.896 | 0.845 | 0.944 | 0.273 | 0.32 | 0.348 | 0.269 | 0.371 | 0.264 | 0.256 | 0.193 | 0.152 | 0.122
NCI-H2228 | 0.375 | 0.286 | 0.216 | 0.101 | 0.0875 | 1.33 | 0.948 | 0.827 | 0.896 | 0.744 | 1.11 | 0.991 | 0.822 | 0.784 | 0.533 | 0.735 | 0.56 | 0.518 | 0.598 | 0.272
NCI-H322M | 0.461 | 0.468 | 0.434 | 0.419 | 0.341 | 1.36 | 0.853 | 1.2 | 1.1 | 1.08 | 0.665 | 0.577 | 0.542 | 0.55 | 0.446 | 0.746 | 0.713 | 0.67 | 0.532 | 0.635
NCI-H727 | 0.586 | 0.535 | – | 0.45 | 0.415 | 0.884 | 0.771 | 0.804 | 0.613 | 0.613 | 1.11 | 0.589 | 0.631 | 0.657 | 0.575 | 0.677 | 0.492 | 0.679 | 0.51 | 0.451
NCI-H661 | 0.354 | 0.353 | 0.374 | 0.395 | 0.342 | 0.846 | 0.69 | 0.894 | 0.63 | 0.768 | 0.428 | 0.479 | 0.449 | 0.591 | 0.425 | 0.814 | 0.723 | 0.75 | 0.72 | 0.724
EKVX | 0.401 | 0.511 | 0.392 | 0.358 | 0.311 | 0.974 | 0.995 | 1.03 | 0.946 | 0.823 | 0.19 | 0.233 | 0.418 | 0.218 | 0.227 | 0.754 | 0.834 | 0.818 | 0.576 | 0.721
EPLC-272H | 0.7 | 0.172 | 0.16 | 0.124 | 0.107 | 1.14 | 0.826 | 0.738 | 0.67 | 0.574 | 1.03 | 0.944 | 0.637 | 0.755 | 0.621 | 0.879 | 0.711 | 0.557 | 0.471 | 0.293
NCI-H1666 | 0.639 | 0.711 | 0.541 | 0.726 | 0.623 | 0.753 | 0.849 | 0.766 | 0.735 | 0.698 | 0.841 | 0.853 | 0.669 | 0.735 | 0.618 | 0.726 | 0.732 | 0.72 | 0.638 | 0.777
NCI-H2405 | 0.764 | 0.737 | 0.76 | 0.667 | 0.612 | 1.04 | 0.949 | 1 | 0.937 | 0.883 | 1.43 | 1.06 | 0.999 | 1.02 | 0.847 | 0.972 | 0.902 | 0.856 | 0.777 | 0.697
NCI-H2126 | 0.829 | 0.853 | 0.852 | 0.789 | 0.618 | 1.13 | 1.14 | 1.14 | 1.08 | 1.03 | 0.705 | 0.754 | 0.83 | 0.76 | 0.674 | 0.897 | 0.979 | 0.843 | 0.769 | 0.757
NCI-H460 | 0.313 | 0.502 | 0.687 | 0.325 | 0.264 | 1.14 | 0.898 | 1.09 | 0.926 | 1.32 | 1.13 | 0.915 | 1.07 | 0.921 | 0.999 | 0.424 | 0.438 | 0.392 | 0.326 | 0.388
NCI-H1993 | 0.631 | 0.535 | 0.56 | 0.588 | 0.493 | 1.02 | 1.22 | 0.852 | 0.872 | 0.642 | 0.904 | 0.997 | 0.857 | 0.87 | 0.734 | 1.13 | 1.04 | 0.943 | 0.736 | 0.769
HCC-78 | 0.414 | 0.509 | 0.426 | 0.461 | 0.406 | 0.496 | 0.497 | 0.473 | 0.555 | 0.563 | 0.647 | 0.764 | 0.684 | 0.841 | 0.746 | 0.683 | 0.796 | 0.766 | 0.754 | 0.75
LU99A | 0.253 | 0.284 | 0.277 | 0.242 | 0.225 | 1.11 | 1.04 | 1.08 | 0.94 | 0.761 | 1.02 | 1.08 | 0.76 | 0.813 | 0.869 | 0.278 | 0.216 | 0.211 | 0.171 | 0.19
NCI-H520 | 0.448 | 0.478 | 0.438 | 0.399 | 0.542 | 0.348 | 0.519 | 0.508 | 0.449 | 0.76 | 0.815 | 0.984 | 0.96 | 0.923 | 1.03 | 0.402 | 0.362 | 0.293 | 0.301 | 0.304
